Tested on: 873145-292-R-J1-PDC complex spheroid viability
Test: Anticancer human tumor 873145-292-R-J1-PDC patient-derived renal clear cell carcinoma cell line growth inhibition [POLQ]
Settings: for IC50: curve of first compound; for viability, T/C: stronger effect = lower value
Procedure: Multicellular complex tumor spheroid response to Polymerase (POL) inhibitors (novobiocin, ART-558, RP6685) in combination with a variety of drugs and investigational agents in selected tumor cell lines
The POL inhibitors (novobiocin, ART-558, and RP6685) were evaluated both individually and in combination with standard of care and investigational anticancer small molecules within a complex spheroid model of solid tumors. . Complex spheroids include a stromal component modeled by human endothelial cells (HUVEC) and fibroblasts modeled by human mesenchymal stem cells (MSCs). The concentration ranges selected for each drug and investigational agent were based upon clinically achievable concentrations if the clinical Cmax of the agent was known.
Compounds. The drugs and investigational agents: novobiocin (NSC847541), ART-558 (NSC835418), RP-6685 (NSC848927), peposertib (NSC802822), ceralasertib (NSC780249), elimusertib (NSC800525), camonsertib (NSC841442), AZD-1390 (NSC803789), olaparib (NSC753686), talazoparib (NSC767125), rucaparib (NSC756644), sotorasib (NSC818433), MRTX-1133 (NSC836407), SN-38 (NSC673596), topotecan (NSC609699), epotoside (NSC141540), doxorubicin (NSC123127), gemcitabine (NSC613327), 5-fluorouracil (NSC19893), paclitaxel (NSC125973), vemurafenib (NSC761431), MSA-2 (NSC828583), SN-011 (NSC837082), adavosertib (NSC754352), prexasertib (NSC758257), carboplatin (NSC241240) and oxaliplatin (NSC266046), were obtained from the National Cancer Institute (NCI) Developmental Therapeutics Program Chemical Repository (21). The FDA-approved anticancer drug set is available from the Developmental Therapeutics Program at https://dtp.cancer.gov/organization/dscb/obtaining/. […] The stock solutions were prepared in dimethyl sulfoxide (DMSO, Sigma-Aldrich, St. Louis, MO, cat. D2650), except for the platinum compounds which were prepared in saline (Quality Biological, Gaithersburg, MD, cat. 114-055-101), at 800-fold the tested concentration and stored at -70 degrees C prior to their use. All drugs and investigational agents were tested over a range starting from a high concentration at or near the clinical Cmax and decreasing in half-log increments. If the clinical Cmax for an agent had not been determined, the highest concentration tested was 10 microM, except for SN-38, which was tested at a high concentration of 1 microM.
Cell Culture. All cells were maintained in an incubator at 37 degrees C and 5% CO2 with 95% humidity. The PDC lines were cultured according to standard operating procedures established by the NCI PDMR (https://pdmr.cancer.gov). Table 3 of the manuscript, lists the cell lines along with the number of the three cell types plated to form the mct-spheroids and media for tumor cell growth. After thawing, all PDC lines, except 997537-175-T-J1-PDC and 415267-285-R-J2-PDC, were cultured in Matrigel-coated flasks prepared with a working solution of 1X Ham's F-12 nutrient mix, without supplementation (Thermo Fisher Scientific, cat. 11765054), 100 U/mL penicillin-streptomycin (Thermo Fisher Scientific, cat. 15140122), and 2.5% Matrigel (Corning Inc., Corning, NY, cat. 354248) for the first three passages. The two PDC lines 997537-175-T-J1-PDC and 415267-285-R-J2-PDC were cultured on uncoated flasks. The 857933-349-R-J2-PDC line was cultured in 6C/Colon 1B media containing advanced DMEM/F-12 (Thermo Fisher Scientific, cat. 12634028), 10 mM HEPES (Thermo Fisher Scientific, cat. 15630080), 1X GlutaMAX supplement (Thermo Fisher Scientific, cat. 35050061), 0.1 mg/mL primocin (InvivoGen, San Diego, CA, cat. ant-pm-2), 10% defined fetal bovine serum, heat inactivated (HyClone Laboratories Inc., Logan, UT, cat. SH30070.03HI), 50% L-WRN conditioned media (ATCC, cat. CRL-3276), 1.25 mM N-Acetyl-L-cysteine (Sigma-Aldrich, cat. A9165), 10 mM nicotinamide (Sigma-Aldrich, cat. N0636), 1X B-27 supplement (Thermo Fisher Scientific, cat. 17504044), 1X N-2 supplement (Thermo Fisher Scientific, cat. […]

[1] = second compound 0.0316 µM, first compound 0.0316 µM
[2] = second compound 0.0316 µM, first compound 0.1 µM
[3] = second compound 0.0316 µM, first compound 0.316 µM
[4] = second compound 0.0316 µM, first compound 1 µM
[5] = second compound 0.0316 µM, first compound 3.16 µM
[6] = second compound 0.0316 µM, first compound 10 µM
[7] = second compound 0.1 µM, first compound 0.0316 µM
[8] = second compound 0.1 µM, first compound 0.1 µM
[9] = second compound 0.1 µM, first compound 0.316 µM
[10] = second compound 0.1 µM, first compound 1 µM
[11] = second compound 0.1 µM, first compound 3.16 µM
[12] = second compound 0.1 µM, first compound 10 µM
[13] = second compound 0.316 µM, first compound 0.0316 µM
[14] = second compound 0.316 µM, first compound 0.1 µM
[15] = second compound 0.316 µM, first compound 0.316 µM
[16] = second compound 0.316 µM, first compound 1 µM
[17] = second compound 0.316 µM, first compound 3.16 µM
[18] = second compound 0.316 µM, first compound 10 µM
[19] = second compound 1 µM, first compound 0.0316 µM
[20] = second compound 1 µM, first compound 0.1 µM
[21] = second compound 1 µM, first compound 0.316 µM
[22] = second compound 1 µM, first compound 1 µM
[23] = second compound 1 µM, first compound 3.16 µM
[24] = second compound 1 µM, first compound 10 µM
[25] = second compound 3.16 µM, first compound 0.0316 µM
[26] = second compound 3.16 µM, first compound 0.1 µM
[27] = second compound 3.16 µM, first compound 0.316 µM
[28] = second compound 3.16 µM, first compound 1 µM
[29] = second compound 3.16 µM, first compound 3.16 µM
[30] = second compound 3.16 µM, first compound 10 µM
[31] = second compound 10 µM, first compound 0.0316 µM
[32] = second compound 10 µM, first compound 0.1 µM
[33] = second compound 10 µM, first compound 0.316 µM
[34] = second compound 10 µM, first compound 1 µM
[35] = second compound 10 µM, first compound 3.16 µM
[36] = second compound 10 µM, first compound 10 µM
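Further: spheroids exposed to compounds for 7 days before viability readout.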
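Wherever viability, T/C is given: luminescence signal used as surrogate for viable cell content; 100% = DMSO vehicle control viability.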

## COc1cc(C2c3cc4c(cc3C(OC3OC5COC(C)OC5C(O)C3O)C3COC(=O)C23)OCO4)cc(OC)c1O (centres undefined) + COC1C(OC(N)=O)C(O)C(Oc2ccc3c(O)c(NC(=O)c4ccc(O)c(CC=C(C)C)c4)c(=O)oc3c2C)OC1(C)C
Second compound 0.0316 µM
  IC50: > 10000 nM
Second compound 0.1 µM
  IC50: > 10000 nM
Second compound 0.316 µM
  IC50: > 10000 nM
Second compound 1 µM
  IC50: > 10000 nM
Second compound 3.16 µM
  IC50: > 10000 nM
Second compound 10 µM
  IC50: > 10000 nM
[1]
  viability, T/C: 104%
[2]
  viability, T/C: 108%
[3]
  viability, T/C: 103%
[4]
  viability, T/C: 99.1%
[5]
  viability, T/C: 80.3%
[6]
  viability, T/C: 57.2%
[7]
  viability, T/C: 112%
[8]
  viability, T/C: 101%
[9]
  viability, T/C: 101%
[10]
  viability, T/C: 96.2%
[11]
  viability, T/C: 72.5%
[12]
  viability, T/C: 53.8%
[13]
  viability, T/C: 114%
[14]
  viability, T/C: 99.4%
[15]
  viability, T/C: 100%
[16]
  viability, T/C: 87.4%
[17]
  viability, T/C: 72.9%
[18]
  viability, T/C: 54.3%
[19]
  viability, T/C: 96.2%
[20]
  viability, T/C: 95.5%
[21]
  viability, T/C: 101%
[22]
  viability, T/C: 86.2%
[23]
  viability, T/C: 79%
[24]
  viability, T/C: 53.4%
[25]
  viability, T/C: 107%
[26]
  viability, T/C: 106%
[27]
  viability, T/C: 104%
[28]
  viability, T/C: 86.6%
[29]
  viability, T/C: 70.9%
[30]
  viability, T/C: 57.7%
[31]
  viability, T/C: 103%
[32]
  viability, T/C: 103%
[33]
  viability, T/C: 95.5%
[34]
  viability, T/C: 94.5%
[35]
  viability, T/C: 76.7%
[36]
  viability, T/C: 67.2%

## COc1cccc2c1C(=O)c1c(O)c3c(c(O)c1C2=O)CC(O)(C(=O)CO)CC3OC1CC(N)C(O)C(C)O1 (centres undefined) + COC1C(OC(N)=O)C(O)C(Oc2ccc3c(O)c(NC(=O)c4ccc(O)c(CC=C(C)C)c4)c(=O)oc3c2C)OC1(C)C
Second compound 0.0316 µM
  IC50: 1610 nM
Second compound 0.1 µM
  IC50: 1600 nM
Second compound 0.316 µM
  IC50: 1510 nM
Second compound 1 µM
  IC50: 1400 nM
Second compound 3.16 µM
  IC50: 1450 nM
Second compound 10 µM
  IC50: 1500 nM
[1]
  viability, T/C: 98.9%
[2]
  viability, T/C: 92.4%
[3]
  viability, T/C: 74.9%
[4]
  viability, T/C: 81.8%
[5]
  viability, T/C: 4.46%
[6]
  viability, T/C: 4.3%
[7]
  viability, T/C: 99.5%
[8]
  viability, T/C: 91.7%
[9]
  viability, T/C: 75.1%
[10]
  viability, T/C: 80.8%
[11]
  viability, T/C: 5.22%
[12]
  viability, T/C: 4.58%
[13]
  viability, T/C: 98.1%
[14]
  viability, T/C: 84.2%
[15]
  viability, T/C: 69.3%
[16]
  viability, T/C: 74.1%
[17]
  viability, T/C: 7.63%
[18]
  viability, T/C: 3.12%
[19]
  viability, T/C: 99.6%
[20]
  viability, T/C: 78.8%
[21]
  viability, T/C: 78.8%
[22]
  viability, T/C: 68.5%
[23]
  viability, T/C: 5.35%
[24]
  viability, T/C: 3.76%
[25]
  viability, T/C: 93.3%
[26]
  viability, T/C: 79.8%
[27]
  viability, T/C: 80.7%
[28]
  viability, T/C: 71.1%
[29]
  viability, T/C: 5.62%
[30]
  viability, T/C: 2.42%
[31]
  viability, T/C: 101%
[32]
  viability, T/C: 90.1%
[33]
  viability, T/C: 78.2%
[34]
  viability, T/C: 74.4%
[35]
  viability, T/C: 5.66%
[36]
  viability, T/C: 2.86%

From PubChem BioAssay AID1963834 (Molecular Pharmacology Branch, DTP, NCI, 2024)
